Article PMC10800023 (Human Molecular Genetics, 2023)
Marks after values point to notes of the source that are not given here.

Experiments:
IL-12 = test: LPS-induced IL-12 in cultured BMDM; type: cell-based; conditions: Mus musculus, corticosteroid overnight, LPS 10 ng/ml 3 h
Text: (§1) The immunosuppressive activity of corticosteroids is in part due to their inhibition of NF-κB-induced cytokines including TNF-α, IL-6, and IL-12. Furthermore, expression of some inflammatory-mediated proteins such as STAT1 is mediated via GREs, and not the NF-κB pathway. We therefore expanded murine bone marrow-derived macrophages (BMDM) in vitro, and after 5 days of culture tested the relative efficacy of different corticosteroids to prevent LPS-induced cytokine secretion.
(§2) BMDM mouse bone marrow derived macrophage (mBMDM) cultures were generated from the femur and tibia from two 7–11-week-old C57BL/6 mice. Briefly, bone marrow cells were carefully flushed out, suspended in ice-cold PBS, and spun down. After the supernatant was removed, the pelleted cells were resuspended in 2 ml (ammonium-Chloride-Potassium) ACK lysis buffer (Thermo Fisher, Cat# A1049201) and incubated for 3–4 min, followed by 14 ml ice-cold PBS, and then spun down. The pelleted cells were resuspended in 43 ml complete media [Roswell Park Memorial Institute (RPMI 1640), Gibco, Cat# 11875-093; 10% heat-inactivated fetal bovine serum (HiFBS), HyClone, Cat# SH30406.02; 1% 2 mM L-glutamine; 1% penicillin-streptomycin, Sigma, Cat# P4333-100ML; 1% MEM NEAA, Gibco, Cat# 11140-050; 1% Na Pyruvate, Gibco, Cat# 11360-070; 55 μM 2-Mercaptoethanol, Gibco, Cat#21985-023]. A total of 25 ng/ml M-CSF was added to the culture. Cells were dispensed as 200 μl per well into a 96-well tissue culture plate and incubated at 37°C, 5% CO2 for 4 days. On Day 5, media were removed and 100 μl fresh complete media containing M-CSF were added. Corticosteroids were added and cells incubated at 37°C and 5% CO2 overnight. Untreated cells were incubated with media. On Day 6, 10 ng/ml of lipopolysaccharide (LPS) was added and incubated at 37°C and 5% CO2 for 3 h followed by removal of cell media for cytokine analysis. Cytokines were measured using a Meso Scale Discovery (MSD), V-PLEX kit (V-PLEX Cat# K-15048D, www.mesoscale.com).

IL-1β = test: LPS-induced IL-1β in cultured BMDM; type: cell-based; conditions: Mus musculus, corticosteroid overnight, LPS 10 ng/ml 3 h
Text: as §1, §2

B10-mdx mice [1] = test: RNA-sequencing of tissues after 2 weeks of treatment (Study 1); conditions: vs vehicle-treated B10-mdx
B10-mdx mice [2] = test: Circulating lymphocytes and neutrophils (CBC) after 2 weeks (Study 1); type: in vivo, mouse
Experimental: It is understood that part of the efficacy of corticosteroids is via their impact on leukocyte trafficking, resulting in a decrease in lymphocyte and an increase in neutrophil counts in the blood within hours of drug administration. Corticostetoids regulate leukocyte trafficking via changes in adhesion molecules and cytokines, which likely reflects inhibition of NF-κB [39, 40]. The effect of the three corticosteroids on leukocyte trafficking was assessed in B10-mdx mice after 2 weeks of dosing (Study 1). No significant differences in neutrophil-to-lymphocyte ratio were seen between wildtype and B10-mdx mice (Fig. 6a).
Study 1: The goal of this study was to define the dose-response of each of the three corticosteroids. […] On Day 11, mice were fasted for 6 h and then blood was obtained to measure blood glucose. Blood glucose was measured using a glucometer (ACCU-CHECK) by tail bleeding. At the end of 14 days, mice were euthanized, and blood samples were evaluated for complete blood count (CBC) and plasma were collected for analysis of corticosterone levels, osteocalcin, creatine kinase, and cytokines. Brain, muscle, and liver were collected for RNAseq. The number of animals per group was as follows: WT, n = 15; B10-mdx, n = 11; corticosteroid-treated groups, n = 10–12.

IFN-γ = test: LPS-induced IFN-γ in cultured BMDM; type: cell-based; conditions: Mus musculus, corticosteroid overnight, LPS 10 ng/ml 3 h
Text: as §1, §2

C57BL/6 mice = test: Tail-suspension test in WT mice after 35 days (Study 3); type: in vivo, mouse; conditions: daily for 35 days, prednisolone 15 mg/kg or vamorolone 45 mg/kg
Experimental: In the CNS of these miceFkbp5 mRNA and Ddrd4 mRNA levels were increased (Supplementary Fig. S3d and e). Expression of FKBP5 is reported to be GRE regulated, and Drd4 is a reported biomarker of depression.
• 1) Force-swim test: Animals were single housed and acclimated in the behavior room for 30 min prior to test. A clean 1-L beaker was filled with 700 to 800 ml of 23°C water. Each mouse was placed into the water for 6 min. The total immobility time was recorded. After the test, the animals were dried and placed in a cage on a heating pad for about 10 min before returning to the home cages. • 2) Tail-suspension test: Isolated mice were suspended 50 cm above the floor by surgical tape placed approximately 1 cm from the tip of the tail for 6 min. The total immobility time of mice was measured. Mice were considered immobile only when they hung passively and completely motionless.

CC(=O)OCC(=O)[C@@]12N=C(C)O[C@@H]1C[C@H]1[C@@H]3CCC4=CC(=O)C=C[C@]4(C)[C@H]3[C@@H](O)C[C@@]12C [Deflazacort]
EC50 (IL-12): 3.6 nM | EC50 (IL-1β): 1.3 nM | Number of genes, Quadriceps, Down-regulated (B10-mdx mice [1]; 1.25 mg/kg daily): 4245 | Number of genes, Quadriceps, No Change (B10-mdx mice [1]; 1.25 mg/kg daily): 7767 | Number of genes, Quadriceps, Up-regulated (B10-mdx mice [1]; 1.25 mg/kg daily): 4298 | Number of genes, Whole Brain, Down-regulated (B10-mdx mice [1]; 1.25 mg/kg daily): 31 | Number of genes, Whole Brain, Up-regulated (B10-mdx mice [1]; 1.25 mg/kg daily): 1 | Number of genes, Quadriceps, Down-regulated (B10-mdx mice [1]; 2.5 mg/kg daily): 3706 | Number of genes, Quadriceps, No Change (B10-mdx mice [1]; 2.5 mg/kg daily): 9024 | Number of genes, Quadriceps, Up-regulated (B10-mdx mice [1]; 2.5 mg/kg daily): 3580 | Number of genes, Whole Brain, Down-regulated (B10-mdx mice [1]; 2.5 mg/kg daily): 4 | Number of genes, Whole Brain, No Change (B10-mdx mice [1]; 2.5 mg/kg daily): 16306 | Number of genes, Whole Brain, Up-regulated (B10-mdx mice [1]; 2.5 mg/kg daily): 0 | Number of genes, Quadriceps, Down-regulated (B10-mdx mice [1]; 5 mg/kg daily): 5354 | Number of genes, Quadriceps, No Change (B10-mdx mice [1]; 5 mg/kg daily): 4889 | Number of genes, Quadriceps, Up-regulated (B10-mdx mice [1]; 5 mg/kg daily): 6067 | Number of genes, Whole Brain, Down-regulated (B10-mdx mice [1]; 5 mg/kg daily): 39 | Number of genes, Whole Brain, No Change (B10-mdx mice [1]; 5 mg/kg daily): 16214 | Number of genes, Whole Brain, Up-regulated (B10-mdx mice [1]; 5 mg/kg daily): 57 | Number of genes, Quadriceps, Down-regulated (B10-mdx mice [1]; 15 mg/kg daily): 5462 | Number of genes, Quadriceps, No Change (B10-mdx mice [1]; 15 mg/kg daily): 5024 | Number of genes, Quadriceps, Up-regulated (B10-mdx mice [1]; 15 mg/kg daily): 5824 | Number of genes, Whole Brain, Down-regulated (B10-mdx mice [1]; 15 mg/kg daily): 231 | Number of genes, Whole Brain, No Change (B10-mdx mice [1]; 15 mg/kg daily): 15981 | Number of genes, Whole Brain, Up-regulated (B10-mdx mice [1]; 15 mg/kg daily): 98 | % decrease in fraction of lymphocytes at Day 14 from mdx vehicle (B10-mdx mice [2]; 1.25 mg/kg PO daily): (1%) | % increase in fraction of PMNs at Day 14 (B10-mdx mice [2]; 1.25 mg/kg PO daily): 3% | % decrease in fraction of lymphocytes at Day 14 from mdx vehicle (B10-mdx mice [2]; 2.5 mg/kg PO daily): 5% | % increase in fraction of PMNs at Day 14 (B10-mdx mice [2]; 2.5 mg/kg PO daily): 32%* | % decrease in fraction of lymphocytes at Day 14 from mdx vehicle (B10-mdx mice [2]; 5 mg/kg PO daily): 9%* | % increase in fraction of PMNs at Day 14 (B10-mdx mice [2]; 5 mg/kg PO daily): 41%* | % decrease in fraction of lymphocytes at Day 14 from mdx vehicle (B10-mdx mice [2]; 15 mg/kg PO daily): 19%**** | % increase in fraction of PMNs at Day 14 (B10-mdx mice [2]; 15 mg/kg PO daily): 82%**** | EC50 (IFN-γ): 0.29 nM

C[C@]12C=CC(=O)C=C1CC[C@@H]1[C@@H]2[C@@H](O)C[C@@]2(C)[C@H]1CC[C@]2(O)C(=O)CO [Prednisolone]
EC50 (IL-12): 8.5 nM | depression-like behavior as measured by the TST (C57BL/6 mice): induced depression-like behavior | EC50 (IL-1β): 3 nM | Number of genes, Quadriceps, Down-regulated (B10-mdx mice [1]; 1.2 mg/kg daily): 3855 | Number of genes, Quadriceps, No Change (B10-mdx mice [1]; 1.2 mg/kg daily): 8205 | Number of genes, Quadriceps, Up-regulated (B10-mdx mice [1]; 1.2 mg/kg daily): 4250 | Number of genes, Quadriceps, Down-regulated (B10-mdx mice [1]; 2.4 mg/kg daily): 5216 | Number of genes, Quadriceps, Up-regulated (B10-mdx mice [1]; 2.4 mg/kg daily): 6030 | Number of genes, Quadriceps, Down-regulated (B10-mdx mice [1]; 5 mg/kg daily): 4173 | Number of genes, Quadriceps, No Change (B10-mdx mice [1]; 5 mg/kg daily): 7883 | Number of genes, Quadriceps, Up-regulated (B10-mdx mice [1]; 5 mg/kg daily): 4254 | % decrease in fraction of lymphocytes at Day 14 from mdx vehicle (B10-mdx mice [2]; 1.2 mg/kg PO daily): 17%** | % increase in fraction of PMNs at Day 14 (B10-mdx mice [2]; 1.2 mg/kg PO daily): 64%** | % decrease in fraction of lymphocytes at Day 14 from mdx vehicle (B10-mdx mice [2]; 2.4 mg/kg PO daily): 18%** | % increase in fraction of PMNs at Day 14 (B10-mdx mice [2]; 2.4 mg/kg PO daily): 81%*** | % decrease in fraction of lymphocytes at Day 14 from mdx vehicle (B10-mdx mice [2]; 5 mg/kg PO daily): 21%*** | % increase in fraction of PMNs at Day 14 (B10-mdx mice [2]; 5 mg/kg PO daily): 92%**** | EC50 (IFN-γ): 0.5 nM

C[C@@H]1C[C@H]2[C@@H]3CCC4=CC(=O)C=C[C@]4(C)C3=CC[C@]2(C)[C@@]1(O)C(=O)CO [Vamorolone]
EC50 (IL-12): 30 nM | depression-like behavior as measured by the TST (C57BL/6 mice): induced depression-like behavior | EC50 (IL-1β): 32 nM | Number of genes, Quadriceps, Down-regulated (B10-mdx mice [1]; 15 mg/kg daily): 3014 | Number of genes, Quadriceps, No Change (B10-mdx mice [1]; 15 mg/kg daily): 9369 | Number of genes, Quadriceps, Up-regulated (B10-mdx mice [1]; 15 mg/kg daily): 3927 | Number of genes, Whole Brain, Down-regulated (B10-mdx mice [1]; 15 mg/kg daily): 138 | Number of genes, Whole Brain, No Change (B10-mdx mice [1]; 15 mg/kg daily): 16068 | Number of genes, Whole Brain, Up-regulated (B10-mdx mice [1]; 15 mg/kg daily): 104 | Number of genes, Quadriceps, Down-regulated (B10-mdx mice [1]; 30 mg/kg daily): 3138 | Number of genes, Quadriceps, No Change (B10-mdx mice [1]; 30 mg/kg daily): 10053 | Number of genes, Quadriceps, Up-regulated (B10-mdx mice [1]; 30 mg/kg daily): 3119 | Number of genes, Whole Brain, Down-regulated (B10-mdx mice [1]; 30 mg/kg daily): 2087 | Number of genes, Whole Brain, No Change (B10-mdx mice [1]; 30 mg/kg daily): 11760 | Number of genes, Whole Brain, Up-regulated (B10-mdx mice [1]; 30 mg/kg daily): 2463 | Number of genes, Quadriceps, Down-regulated (B10-mdx mice [1]; 45 mg/kg daily): 331 | Number of genes, Quadriceps, No Change (B10-mdx mice [1]; 45 mg/kg daily): 15364 | Number of genes, Quadriceps, Up-regulated (B10-mdx mice [1]; 45 mg/kg daily): 615 | Number of genes, Whole Brain, Down-regulated (B10-mdx mice [1]; 45 mg/kg daily): 1114 | Number of genes, Whole Brain, No Change (B10-mdx mice [1]; 45 mg/kg daily): 14218 | Number of genes, Whole Brain, Up-regulated (B10-mdx mice [1]; 45 mg/kg daily): 978 | % decrease in fraction of lymphocytes at Day 14 from mdx vehicle (B10-mdx mice [2]; 15 mg/kg PO daily): (0.5%) | % increase in fraction of PMNs at Day 14 (B10-mdx mice [2]; 15 mg/kg PO daily): 7% | % decrease in fraction of lymphocytes at Day 14 from mdx vehicle (B10-mdx mice [2]; 30 mg/kg PO daily): 5% | % increase in fraction of PMNs at Day 14 (B10-mdx mice [2]; 30 mg/kg PO daily): 27% | % decrease in fraction of lymphocytes at Day 14 from mdx vehicle (B10-mdx mice [2]; 45 mg/kg PO daily): 14%** | % increase in fraction of PMNs at Day 14 (B10-mdx mice [2]; 45 mg/kg PO daily): 70%** | EC50 (IFN-γ): 0.8 nM
